Measured values from patent publication US20260176228A1, “MODULATORS OF LIVER RECEPTOR HOMOLOGUE 1 (LRH-1) AND USES” (Emory University, priority 2022, published 2026).

Experiments:
LRH-1 LBD [1] = target: T1, LRH-1 LBD (Homo sapiens, UniProt O00482); assay: FP competition (binding) assay; settings: interval in brackets in the cell
T1 construct: LRH-1 LBD (residues 299-541) in the pMSC7 vector; His tag; made in house; host or cells: BL21 (DE3) pLysS E. coli

LRH-1 = target: T2, LRH-1 (Homo sapiens, UniProt O00482); assay: Luciferase reporter (activation) assay in HeLa cells transfected with full-length LRH-1 and SHP-luc reporter; format: cell-based; settings: 24 hours treatment, interval in brackets in the cell
T2 construct: The transfected plasmids included full-length LRH-1 in a pCI vector (5 ng/well); expressed in transfected cells; host or cells: HeLa cells
Description: HeLa cells were seeded at a density of 10,000 cells per well in white-walled, clear-bottomed 96-well culture plates. The next day, cells were transfected with LRH-1 and reporters, using Fugene™ HD (Roche; Indianapolis, IN) at a ratio of 5:2 Fugene™ (μl): DNA (μg). The transfected plasmids included full-length LRH-1 in a pCI vector (5 ng/well), and a SHP-luc reporter, encoding the LRH-1 response element and surrounding sequence from the SHP promoter cloned upstream of firefly luciferase in the pGL3 basic vector (50 ng/well). Cells were also co-transfected with a constitutive Renilla luciferase reporter (utilizing the CMV promoter), which was used for normalization of firefly signal (1 ng/well). Control cells received pCI empty vector at 5 ng/well in place of LRH-1-pCI. Agonists were dissolved in DMSO and then diluted into media, with a final concentration of 0.3% DMSO in all wells. Luciferase signal was quantified using the DualGlo™ kit (Promega; Madison, WI). Experiments were conducted at least two times in triplicate. Compounds were synthesized and evaluated in biological assays.

LRH-1 LBD [2] = target: T1, LRH-1 LBD; assay: Thermal stability assay (Tycho NT.6) of LRH-1 LBD complexed with ligands; format: binding; settings: LRH-1 LBD with 5-fold molar excess of ligand; for Inflection Point (Thermal Stability), shift in parentheses: value in parentheses
Description: Thermal shift was also assessed for each of the compounds to determine the protein thermal stability. Thermal stability of the LRH-1 LBD complexed with ligands was determined using a Tycho NT.6 Nanotemper. The LRH-1 LBD was incubated with 5-fold molar excess of ligand (final DMSO concentration was 1.4%) overnight at 4° C. in assay buffer (150 mM NaCl, 20 mM Tris-HCl, and 5% glycerol (pH 7.4)). Complexes were centrifuged at high speed for five minutes and then loaded into capillaries. Tryptophan/tyrosine fluorescence was monitored at wavelengths of 330 nm and 350 nm over a 30° C./min gradient (35° C.-95° C.). The inflection point was determined with Tycho NT.6 software. Two separate experiments were conducted in triplicate.

hepatic LRH-1 = assay: Liver target gene expression in H-mLRH-1 mice (RNA-seq, RT-qPCR); format: in vivo; settings: 30 mg/Kg IP injection
Description: FIGS. 2A, 2B, and 2C show the target gene expression driven by 6N-10CA-ME. FIG. 2A is a Volcano Plot showing RNA-seq of H-mLRH-1 mice treated with 3 mg/Kg of 6N-10CA-ME via an intraperitoneal injection. FIG. 2B is a Volcano Plot showing RNA-seq of H-mLRH-1 mice treated with 30 mg/Kg of 6N-10CA-ME via an intraperitoneal injection. FIG. 2C is a RT-qPCR showing target gene expression at 3 and 30 mg/kg doses.
The tissue distribution of compounds as described herein and the dosage needed for the in vivo activation of hepatic LRH-1 were evaluated. For these studies, H-mLRH-1 mice (male and female; 10 weeks of age) were used. A single dose time course experiment was conducted in which different cohorts of H-mLRH-1 mice (n=6) were given a high dose (i.e., 30 mg/kg compound) via oral and intraperitoneal (IP) delivery. Liver tissue was harvested and the gene expression of Cyp7a1, Scarb1, ApoA4, and Shp was measured using standard qPCR methods at 1, 3, 6, 12, and 24 hrs. The time of peak target gene expression for a dose finding study was selected. Different cohorts of H-mLRH-1 mice were given 6 doses of the compounds using a half-log scale (i.e., 0, 0.003, 0.03, 0.3, 3, and 30 mg/kg) via oral or IP delivery. Collected liver tissue was used to monitor the expression of the genes listed above.

SF-1 = SF-1 (Homo sapiens, UniProt Q13285); assay: SF-1 LUC-reporter gene activation in cultured cells; format: cell-based
[3] = system: other nuclear receptors (NRs); assay: Nuclear receptor cross-reactivity in reporter cells; format: cell-based; settings: 2 μM in reporter cells; normalized to reference agonist for each receptor
Description: 6N-10CA-ME was introduced to reporter cells at 2 μM and the activity of respective NRs was tested. Data are normalized relative to activity induced by the appropriate reference agonist for each receptor.
SF-1 activity was assessed using RT-qPCR for target genes (e.g., Star, Fdps, Hmgcr), though morphological/histological examination of these organs and by monitoring circulating levels of cortisol, aldosterone and androsterone using targeted LC/MS/MS.

[4] = system: H-mLRH-1 mice with diet-induced obesity; assay: Diet-induced obesity (HFD) model, glucose tolerance; format: in vivo; settings: HFD (60% fat) mice, 3 mg/kg, intraperitoneal daily from 12 to 16 weeks of HFD
Description: Male and female mice were treated with 6N-10CA-ME via an intraperitoneal injection starting at 12 weeks of High Fat Diet (HFD; 60% fat) feeding and continuing daily to 16 weeks of HFD feeding. (Panel A) Summary of body weights of mice in each group at 0, 12, and 16 weeks of HFD feeding. (Panels B and C) Fasting blood glucose (mg/dL) levels of mice in each group at 12 and 16 weeks of HFD feeding. (Panel D) Glucose tolerance tests (GTT) following administration of glucose (2 g/kg) at 12 and 16 weeks of HFD feeding. (Panel E) Area under the curve (AUC) summary of GTT at 12 and 16 weeks of HFD feeding. Data are represented as means+/−SEM. Sample size is 6-17 per group. **** p<0.0001 vs. chow. Data were analyzed with a two-way ANOVA with Tukey multiple comparison test.
In this study, a mouse model of DIO was used to evaluate the in vivo efficacy of the compounds as described herein, including the ability of the compounds to (1) attenuate hepatic steatosis and (2) improve glucose tolerance and insulin resistance.
H-mLRH-1 mice (male and female) were fed one of the following diets (OpenSource Diets) for 16 weeks starting at 8 weeks of age: (1) Control Diet (10% fat diet, D12450Ji) or (2) High Fat Diet (HFD, 60% fat; D12492i). […]

diabetic mice = diabetic mice fed DLPC; Lee et al. Nature 2011; cited from earlier work

T2 sequence (O00482 whole entry): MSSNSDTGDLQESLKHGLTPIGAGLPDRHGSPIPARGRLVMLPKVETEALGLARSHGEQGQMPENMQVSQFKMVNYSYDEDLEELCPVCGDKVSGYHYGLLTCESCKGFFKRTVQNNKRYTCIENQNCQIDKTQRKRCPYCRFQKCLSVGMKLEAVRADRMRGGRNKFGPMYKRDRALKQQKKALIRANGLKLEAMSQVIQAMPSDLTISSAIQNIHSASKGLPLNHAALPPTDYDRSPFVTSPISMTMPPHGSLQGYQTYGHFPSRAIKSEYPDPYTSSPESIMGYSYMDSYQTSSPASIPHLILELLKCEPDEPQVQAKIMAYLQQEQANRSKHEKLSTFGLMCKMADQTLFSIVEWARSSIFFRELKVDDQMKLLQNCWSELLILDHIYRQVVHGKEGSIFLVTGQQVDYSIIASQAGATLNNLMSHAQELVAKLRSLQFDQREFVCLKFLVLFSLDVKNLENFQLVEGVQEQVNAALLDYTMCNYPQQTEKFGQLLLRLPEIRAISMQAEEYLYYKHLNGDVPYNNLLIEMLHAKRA
T1 sequence (O00482 299-541): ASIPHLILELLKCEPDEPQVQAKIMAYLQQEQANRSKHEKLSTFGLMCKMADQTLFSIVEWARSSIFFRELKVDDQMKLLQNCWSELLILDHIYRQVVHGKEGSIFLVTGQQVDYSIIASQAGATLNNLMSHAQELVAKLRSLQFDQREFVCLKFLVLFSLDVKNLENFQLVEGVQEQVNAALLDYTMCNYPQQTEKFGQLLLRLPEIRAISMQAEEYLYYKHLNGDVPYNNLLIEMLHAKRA
Chain of SF-1 (Q13285 whole entry): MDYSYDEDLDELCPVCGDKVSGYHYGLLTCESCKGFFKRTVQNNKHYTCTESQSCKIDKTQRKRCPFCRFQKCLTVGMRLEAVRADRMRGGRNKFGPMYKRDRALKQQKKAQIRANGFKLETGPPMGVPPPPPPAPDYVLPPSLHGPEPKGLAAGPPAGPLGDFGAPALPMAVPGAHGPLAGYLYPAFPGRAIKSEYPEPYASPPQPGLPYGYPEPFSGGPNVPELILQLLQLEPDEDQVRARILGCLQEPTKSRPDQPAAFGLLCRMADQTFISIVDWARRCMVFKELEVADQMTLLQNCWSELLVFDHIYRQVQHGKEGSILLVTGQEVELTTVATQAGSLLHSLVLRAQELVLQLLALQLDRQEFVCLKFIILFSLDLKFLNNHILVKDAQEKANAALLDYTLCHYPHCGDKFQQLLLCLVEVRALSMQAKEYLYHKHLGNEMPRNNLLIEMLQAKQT

C=C(c1ccccc1)C12CCC(NS(N)(=O)=O)C1CC(CCOCCCOCCC(=O)O)=C2c1ccccc1 (stereo not drawn) [Compound 6N-10CA-DE, 3-(3-(2-(3-phenyl-3a-(1-phenylvinyl)-6-(sulfamoylamino)-1,3a,4,5,6,6a-hexahydropentalen-2-yl)ethoxy)propoxy) propanoic acid]
Ki (LRH-1 LBD [1]): 480 nM | EC50 (LRH-1): 1200 nM | Inflection Point (Thermal Stability) (LRH-1 LBD [2]): 61 °C | Inflection Point (Thermal Stability), shift in parentheses (LRH-1 LBD [2]): +5.9 °C

C=C(c1ccccc1)C12CCC(O)C1CC(CCCCOCCCCC(=O)O)=C2c1ccccc1 (stereo not drawn) [Compound 10CA-ME, 5-(4-(6-hydroxy-3-phenyl-3a-(1-phenylvinyl)-1,3a,4,5,6,6a-hexahydropentalen-2-yl)butoxy) pentanoic acid]
Ki (LRH-1 LBD [1]): 110 nM | EC50 (LRH-1): 870 nM | Inflection Point (Thermal Stability) (LRH-1 LBD [2]): 59 °C | Inflection Point (Thermal Stability), shift in parentheses (LRH-1 LBD [2]): +3.9 °C

C=C(c1ccccc1)C12CCC(O)C1CC(CCOCCCOCCC(=O)O)=C2c1ccccc1 (stereo not drawn) [Compound 10CA-DE, 3-(3-(2-(6-hydroxy-3-phenyl-3a-(1-phenylvinyl)-1,3a,4,5,6,6a-hexahydropentalen-2-yl)ethoxy)propoxy) propanoic acid]
Ki (LRH-1 LBD [1]): 10000 nM | EC50 (LRH-1): 3200 nM | Inflection Point (Thermal Stability) (LRH-1 LBD [2]): 57 °C | Inflection Point (Thermal Stability), shift in parentheses (LRH-1 LBD [2]): +1.9 °C

C=C(c1ccccc1)C12CCC(NS(N)(=O)=O)C1CC(CCCCOCCCCC(=O)O)=C2c1ccccc1 (stereo not drawn) [Compound 6N-10CA-ME, 5-(4-(3-phenyl-3a-(1-phenylvinyl)-6-(sulfamoylamino)-1,3a,4,5,6,6a-hexahydropentalen-2-yl)butoxy) pentanoic acid]
Ki (LRH-1 LBD [1]): 12 nM | EC50 (LRH-1): 50 nM | Inflection Point (Thermal Stability) (LRH-1 LBD [2]): 65 °C | Inflection Point (Thermal Stability), shift in parentheses (LRH-1 LBD [2]): +9.9 °C | Liver target gene expression (hepatic LRH-1): elevation of Cyp7a1 and Apoa4 and a reduction in Fasn | SF-1 activity (LUC-reporter gene activation) (SF-1): displays SF-1 activity | Cross-reactivity with other nuclear receptors [3]: minimal cross-reactivity | Glucose intolerance [4]: reduces glucose intolerance

CCCCCCCCCCCC(=O)OC[C@H](COP(=O)([O-])OCC[N+](C)(C)C)OC(=O)CCCCCCCCCCC [DLPC, dilauroyl-phosphatidylcholine]
Glucose tolerance and hepatic fat accumulation (diabetic mice): improved glucose tolerance and reduced hepatic fat accumulation
